Results filed as inconclusive are left out. Activity calls are given as the source filed them.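 The calls were made as follows: active = compound lowering the normal-ribosome reporter at least twice as much as the humanized-ribosome reporter, growth loss under a set limit; inconclusive = no clear call, values can overlap the other calls; inactive = the rest.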
Test system: E. coli WT-GFP vs G2058-humanized RFP, fluorescence, 24 h
Assay: E. coli strain growth, wild-type against G2058 humanized RFP mutant – G2058 mutant RFP vs wild-type GFP, cherry-pick, two tests, dose response (AID 1035470)
[1] = E. coli WT-GFP vs G2058-humanized RFP mixed culture, total growth OD600, 24 h
[2] = measured here: G2058 humanized mutant RFP growth

| Compound | AC50 | AC50 [1] [µM] | other results |
| --- | --- | --- | --- |
| COc1ccc(-n2ccnc2SCC(=O)NCc2ccccc2)c(OC)c1 | > 100 µM (inactive) | > 100 |  |
| O=[N+]([O-])c1ccccc1Oc1ccc(Cl)c2cccnc12 | > 100 µM (inactive) |  |  |
| COc1cccc(-c2ccc(NC(=O)C3CCCN(Cc4cnn(C(C)C)c4)C3)cc2)c1 (configuration not stated) | > 100 µM (inactive) |  |  |
| CCc1ccc2nc(N(CCCN(C)C)C(=O)c3ccc4c(c3)OCCO4)sc2c1 | > 100 µM (inactive) | > 100 |  |
| CCCNc1ccc(C(=O)OCC)cc1[N+](=O)[O-] | > 100 µM (inactive) | > 100 |  |
| Cc1cccc(N2CCN(Cc3nc(-c4ccc(F)cc4F)oc3C)CC2)n1 | > 100 µM (inactive) | > 100 |  |
| COC(=O)c1cccc(CN2C(=O)SC(Nc3ccc(C)cc3)C2=O)c1 (configuration not stated) | > 100 µM (inactive) |  |  |
| Cc1nc(N2CCC(C)CC2)c(C#N)c(C)c1[N+](=O)[O-] | > 100 µM (inactive) |  |  |
| CCN(CC(=O)Nc1cccc(C#N)c1)CC(=O)Nc1cccc(OC)c1 |  | > 100 |  |
| N#Cc1ccc(OCC(=O)N2CCN(S(=O)(=O)c3ccc(Cl)s3)CC2)cc1 | > 100 µM (inactive) |  |  |
| Cc1cc(NC(=O)CCCn2cc([N+](=O)[O-])cn2)n(Cc2ccc(F)cc2)n1 | > 100 µM (inactive) | > 100 |  |
| CCn1ncc(Br)c1C(=O)Nc1ccc2c(c1)OCCO2 | > 100 µM (inactive) |  |  |
| CC(C)(C)C1CCC(C(=O)OCC(=O)N2CCN(C(=O)c3ccco3)CC2)CC1 (configuration not stated) | > 100 µM (inactive) |  |  |
| CC(C)(CC(=O)O)CC(=O)NCc1c(Cl)cccc1Sc1ccc(Cl)cc1 | > 100 µM (inactive) |  |  |
| COC(=O)CC1COc2ccccc2N1C(=O)c1ccc(Br)cc1 (configuration not stated) | > 100 µM (inactive) | > 100 |  |
| COc1ccc(CNc2ncnc3cc(OC)c(OC)cc23)cc1OC | > 100 µM (inactive) | > 100 |  |
| CSc1ccccc1C(=O)NCCc1ccc(S(=O)(=O)N2CCCCC2)cc1 | > 100 µM (inactive) |  |  |
| COc1ccc(OC)c(NC(=O)CN(C)CC(=O)Nc2ccccc2Br)c1 |  | > 100 |  |
| CCn1cc(Br)c(C(=O)Nc2ccc(C(=O)OC(C)C)cc2)n1 | > 100 µM (inactive) |  |  |
| NS(=O)(=O)c1ccc(Nc2c([N+](=O)[O-])cncc2[N+](=O)[O-])cc1 | > 100 µM (inactive) |  |  |
| Cc1ccc(C)c(N2CCN(C(=O)CCS(=O)(=O)c3ccc4c(c3)oc(=O)n4C)CC2)c1 |  | > 100 |  |
| Cc1ccc(S(=O)(=O)Nc2ccccc2CNc2cccc(C)n2)cc1 | > 100 µM (inactive) | > 100 |  |

| Compound | AC50 | AC50 [1] [µM] | other results |
| --- | --- | --- | --- |
| C[C@@H]1CN([C@@H](C)CO)C(=O)CCCn2nncc2CO[C@H]1CN(C)C(=O)Nc1cccc(C(F)(F)F)c1 |  | > 100 |  |
| COc1ccc(CN2CCC3CC2c2cc(Cl)ccc23)cc1 (configuration not stated) | > 100 µM (inactive) |  |  |
| O=C1c2cccc(OCC(=O)N3CCCc4ccccc43)c2CCN1Cc1cccnc1 | > 100 µM (inactive) | > 100 |  |
| C=CCN(c1ccccc1)S(=O)(=O)c1ccc(Cl)c(C(=O)OCC(=O)NCCCN2CCCC2=O)c1 |  | > 100 |  |
| CCN(CC)CC(=O)Nc1sc2c(c1C(=O)c1ccccc1OC)CCC2 | > 100 µM (inactive) |  |  |
| CC(C(=O)Nc1nc2ccccc2s1)n1cc([N+](=O)[O-])cn1 (configuration not stated) | > 100 µM (inactive) | > 100 | AC50 [2]: > 100 µM |
| COc1ccc2cc(CO)c3cc(OC)c(OC)cc3c2c1 |  | > 100 | AC50 [2]: > 100 µM |
| O=C(Nc1cc(S(=O)(=O)N2CCCCC2)ccc1N1CCCCC1)C1CC1 | > 100 µM (inactive) |  |  |
| Cc1cc(C(=O)NCCC2=CCCCC2)ccc1[N+](=O)[O-] | > 100 µM (inactive) | > 100 |  |
| O=C(C[n+]1cc(-c2ccc(Cl)c(Cl)c2)n2c1CCC2)OCc1ccccc1 | > 100 µM (inactive) | > 100 |  |
| Cc1cc(C)c(OCCN(C)Cc2ccccc2)c(Br)c1 |  | > 100 |  |
| FC(F)(F)c1ccc(Cl)c(-n2c(Cc3cccs3)n[nH]c2=S)c1 | > 100 µM (inactive) |  |  |
| O=C(CSc1nnc(-c2ccccc2F)n1C1CC1)Nc1cccnc1Cl | > 100 µM (inactive) |  |  |
| Nc1ncncc1-c1ccc2ccccc2c1 | > 100 µM (inactive) |  | AC50 [2]: 48.9 µM |
| CCOc1ccccc1C(=O)NCC(=O)OCCOc1cccc(Cl)c1 |  |  | AC50 [2]: > 100 µM |
| Cc1cccc(CSCC(=O)N2CCN(S(=O)(=O)c3ccccc3C#N)CC2)c1 | > 100 µM (inactive) |  |  |
| O=C1CSC(c2cccnc2)N1Cc1ccc(Cl)c(Cl)c1 (configuration not stated) |  | > 100 |  |
| COc1cccc(CN(C)Cc2nc(Cc3ccccc3Cl)no2)c1 | > 100 µM (inactive) | > 100 |  |
| COc1ccccc1N(C)S(=O)(=O)c1ccc(Cl)c(C(=O)NC2=NCCS2)c1 |  |  | AC50 [2]: 46.3 µM |
| Cc1nnn(C23CC4CC(CC(CC(=O)Nc5ccc(C)c(C)c5)(C4)C2)C3)n1 | > 100 µM (inactive) | > 100 |  |
| O=S(=O)(NOCc1ccc(Cl)cc1)c1ccc(Cl)cc1 |  | > 100 |  |
| COC(=O)c1sccc1NC(=O)CNC(=O)c1ccccc1 |  | > 100 |  |

| Compound | AC50 | AC50 [1] [µM] | other results |
| --- | --- | --- | --- |
| Cc1cc(C(=O)Nc2ccc3ccccc3c2)c(C)o1 | > 100 µM (inactive) | > 100 |  |
| CC(=O)Nc1nc(C)c(-c2csc(Nc3ccccn3)n2)s1 | > 100 µM (inactive) |  |  |
| O=C(Nc1ccccc1Cl)c1ccc2c(c1)N(Cc1ccc(F)cc1)C(=O)CS2=O (configuration not stated) | > 100 µM (inactive) |  |  |
| COc1ccc(NC(=O)CSc2nnc(Cc3ccccc3)o2)c(OC)c1 | > 100 µM (inactive) | > 100 |  |
| O=C(c1ccccc1)C1Oc2ccccc2C2CC(c3cccs3)=NN12 (configuration not stated) | > 100 µM (inactive) |  |  |
| O=C(COC(=O)CNC(=O)c1ccc(F)cc1)Nc1cccc(S(=O)(=O)N2CCCC2)c1 |  | > 100 |  |
| CSc1ccccc1OCc1cc(C(=O)N[C@H]2CCCCNC2=O)no1 | > 100 µM (inactive) | > 100 |  |
| CCCCCCC(=O)N1CCCC(c2nc(-c3cccc(OC)c3)no2)C1 (configuration not stated) | > 100 µM (inactive) |  | AC50 [2]: > 100 µM |
| CS(=O)(=O)c1ccc(C(=O)Nc2nc(-c3ccco3)c(-c3ccco3)s2)cc1 | > 100 µM (inactive) | > 100 | AC50 [2]: > 100 µM |
| CC1(C(=O)NS(=O)(=O)c2cccc(Cl)c2)CCN1C(=O)C1(c2ccc(Cl)cc2)CCC1 (configuration not stated) | > 100 µM (inactive) |  |  |
| CC(C)(C)N(Cc1ccccc1)C(=O)COC(=O)Cn1cnc2ccccc2c1=O |  | > 100 |  |
| CN(C)CCCN(C(=O)CCSc1ccccc1)c1nc2cc3c(cc2s1)OCO3 | > 100 µM (inactive) | > 100 |  |
| CCOc1ccc(CN(C)C(=O)c2ccc(NS(=O)(=O)c3ccc4[nH]c(=O)[nH]c4c3)cc2)cc1 |  | > 100 |  |
| CC[N+](CC)(CC#Cc1ccccc1)CC#Cc1ccccc1 | > 100 µM (inactive) | > 100 |  |
| COc1ccc(NC(=O)CCC(=O)c2cccs2)cc1S(=O)(=O)Nc1ccc(Cl)cc1 | > 100 µM (inactive) |  |  |
| COc1ccc(NC(=O)c2ccc(-c3ccc([N+](=O)[O-])cc3)o2)cc1 | 9.28 µM |  | AC50 (E. coli WT-GFP vs G2058-humanized RFP mixed culture, OD600 growth, 24 h, test 1): > 100 µM; AC50 (measured here: wild-type GFP, test 1): 4.75 µM |
| COc1ccc(Cn2c(=O)c3[nH]cnc3n(-c3ccc(C)cc3)c2=O)cc1 | > 100 µM (inactive) | > 100 |  |
| O=C(Nc1cscc1S(=O)(=O)c1ccccc1)c1ccccc1Cl | > 100 µM (inactive) |  |  |
| CCCCc1ccc(S(=O)(=O)Nc2ccc(C)c(NS(C)(=O)=O)c2)cc1 | > 100 µM (inactive) |  |  |
| O=C(COC(=O)Cc1ccccc1F)Nc1ccc(Cl)cn1 | > 100 µM (inactive) |  |  |
| O=C(Nc1ccc(Br)cc1)c1cccnc1N1CCCCC1 | > 100 µM (inactive) | > 100 |  |
| CCOC(=O)c1[nH]c2ccccc2c1NC(=O)c1ccc(Br)o1 | > 100 µM (inactive) | > 100 |  |

| Compound | AC50 | AC50 [1] [µM] | other results |
| --- | --- | --- | --- |
| COC(=O)c1ccc(CSc2nc3ccccc3s2)o1 |  | > 100 |  |
| Oc1ccc(-c2csc(Nc3ncccn3)n2)cc1 |  | > 100 | AC50 [2]: > 100 µM |
| COC(=O)c1sc(C(C)(C)C)cc1CS(=O)(=O)c1ccc(Cl)cc1 | > 100 µM (inactive) | > 100 |  |
| Cc1cc2nc(SCC(=O)O)nc(C)c2cc1C | > 100 µM (inactive) | > 100 |  |
| O=c1[nH]c(C2CCN(S(=O)(=O)c3ccc4c(c3)OCCO4)CC2)nc2c1nnn2Cc1ccccc1F | > 100 µM (inactive) | > 100 |  |
| COC(=O)c1ccc(CN2CCCC(CO)(Cc3ccccc3F)C2)cc1 (configuration not stated) | > 100 µM (inactive) | > 100 |  |
| CCOc1cc(/C=C(\CC(=O)O)c2nc3ccccc3s2)ccc1OC | > 100 µM (inactive) |  |  |
| COc1ccc(NC(=O)c2sccc2-n2cccc2)cc1 | > 100 µM (inactive) | > 100 |  |
| N#Cc1ccc(-c2ccc(C3[C@H]4CNC[C@@H]3N4S(=O)(=O)c3ccc(-c4ccccc4)cc3)cc2)cc1 (some centres not stated) |  | > 100 |  |
| Cn1c(-[n+]2c(-c3ccccc3)cc(-c3ccccc3)cc2-c2ccccc2)nc2c([N+](=O)[O-])cccc21 | > 100 µM (inactive) |  |  |
| COc1ccc(CNC(=O)c2sc3nc4c(c(C(F)(F)F)c3c2N)CCC4)cc1OC |  |  | AC50 [2]: > 100 µM |
| O=c1c2ccccc2nc(SCc2ccccc2)n1CC1CCCO1 (configuration not stated) |  | > 100 |  |
| CC(C)(C)NC(=O)C(c1ccncc1)N(Cc1ccc(F)cc1)C(=O)c1ccc(-c2ccccc2)[nH]1 (configuration not stated) |  | > 100 |  |
| O=C(NCc1ccco1)c1ccc(COc2cccc3ccccc23)cc1 | > 100 µM (inactive) | > 100 |  |
| COc1cc(OC)cc(C(=O)Nc2ccc(C(=O)Nc3ccccc3OC)cc2)c1 | > 100 µM (inactive) | > 100 |  |
| CCN(CC)CCN(C(=O)c1ccc2c(c1)OCCO2)c1nc2c(Cl)cccc2s1 | > 100 µM (inactive) |  |  |
| CCN(CC)CC(=O)Nc1ccc(-c2ccc(NC(=O)CN(CC)CC)c(OC)c2)cc1OC | > 100 µM (inactive) | > 100 |  |
| CCn1nc(C(=O)OCc2cccc(S(=O)(=O)N(C)C)c2)c2ccccc2c1=O | > 100 µM (inactive) |  |  |
| Cc1cc(C(C)(C)C)oc1C(=O)N(CC(=O)NC1CCCC1)c1c(C)cccc1C | > 100 µM (inactive) |  |  |
| O=C(NCCO)c1cc2c([nH]c3ccccc32)c(-c2ccccc2)n1 | > 100 µM (inactive) | > 100 | AC50 [2]: > 100 µM |
